Earlier results on two molecules are cited in patent US20050085446A1, “Fluoroquinolone formulations and methods of making and using the same” (priority 2003, published 2005).

This series relates to bacterial strains.

Read-outs that look alike come from different tables or passages of the source.

In the case of `O=C(O)c1cn(C2CC2)c2cc(N3CCNCC3)c(F)cc2c1=O` [ciprofloxacin, 1-cyclopropyl-6-fluoro-1,4-dihydro-4-oxo-7-(1-piperazinyl)-3-quinolinecarboxylic acid], the MIC90 result (generally around) was “around 0.5 μg/g”.

With gentamicin, the MIC90 is reported as 10 μg/gm.
